Experimental data as given in patent US20240083886A1, “HETEROCYCLIC GLP-1 AGONISTS” (Gasherbrum Bio, Inc., priority 2020, published 2024).

target: GLP-1 Receptor (Homo sapiens, UniProt P43220); test: GLP-1R agonist cAMP stimulation assay; format: cell-based; conditions: not given
Description: Activation of GLP-1 receptor is known to stimulate cyclic AMP (cAMP) production in cells which indicates primary coupling to the Gαs subunit of the G protein heterotrimeric complex.
To optimize functional activity directed toward Gαs coupling, a HEK293/CRE-Luc cell line developed by HDB stably expressing the GLP-1 Receptor was used. 200× concentration of compound working solutions were prepared (Agilent Technologies Bravo) with ½ log serial dilution in 384-well Echo LDV plate (Labcyte, Cat #LP-0200). 50 nL/well 200× concentration of compound working solutions were moved to 384-well white low volume plate (Greiner, Cat #784075) using Labcyte ECHO550. 1×10^5 cells/mL HEK293/GLP1R/CRE-LUC(HD Biosciences) cell suspensions prepared with assay buffer[DPBS containing 0.5 mM IBMX(Sigma, Cat #15879) and 0.1% BSA (GENVIEW, Cat #FA016-100 g)], 10 uL cell suspensions were added to each well of previous generated assay plate which already contains 50 nl compound at 200×concentration using ThermoFisher Multidrop Combi (1000 cells/well). Seal the plate and incubate at 37° C. with 5% CO2 for 30 min.
After incubation the cAMP assay signal was generated using cAMP dynamic 2 Kit (Cisbio). 5 μL cAMP-d2 working solution was added to each well, followed with 5 μL Anti-cAMP antibody-cryptate working solution added to each well using ThermoFisher Multidrop Combi. Incubate at room temperature for 1 hour protected from light. Read the fluorescence at 665 and 615 nm with Reader PerkinElmer EnVision.
% Activity=100%×(mean RLU of test sample−mean RLU of vehicle control)/(mean RLU of MAX control−mean RLU of vehicle control))

Chain of GLP-1 Receptor (P43220 24-463, species assumed): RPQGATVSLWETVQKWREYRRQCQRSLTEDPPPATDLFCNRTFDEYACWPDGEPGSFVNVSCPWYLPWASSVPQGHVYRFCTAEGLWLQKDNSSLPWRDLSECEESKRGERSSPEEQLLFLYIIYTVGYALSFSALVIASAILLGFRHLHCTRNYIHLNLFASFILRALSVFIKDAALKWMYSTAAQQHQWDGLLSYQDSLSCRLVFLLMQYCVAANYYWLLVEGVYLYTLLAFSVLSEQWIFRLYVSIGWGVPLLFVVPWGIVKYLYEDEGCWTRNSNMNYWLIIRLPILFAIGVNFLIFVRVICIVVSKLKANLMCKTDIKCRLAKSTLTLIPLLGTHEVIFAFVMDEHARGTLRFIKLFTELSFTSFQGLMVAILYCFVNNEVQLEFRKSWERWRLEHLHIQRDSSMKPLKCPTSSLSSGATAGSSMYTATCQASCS

EC50 [nM]	SMILES
7.6	Cc1ncc(-c2ccc3c(c2)nc(CN2CCC(Oc4ccnc(Cc5ccc(Cl)cc5)n4)CC2)n3C[C@@H]2CCO2)s1 [Compound 129a, 2-{[4-({2-[(4-chlorophenyl)methyl]pyrimidin-4-yl}oxy)piperidin-1-yl]methyl}-5-(2-methyl-1,3-thiazol-5-yl)-1-{[(2S)-oxetan-2-yl]methyl}-1H-1,3-benzodiazole]
0.22	FC(F)(F)c1nnc(-c2cnc3c(c2)nc(CN2CCC(Oc4cccc(Cc5ccc(Cl)cc5)n4)CC2)n3C[C@@H]2CCO2)[nH]1 [Compound 143a, 2-[(4-chlorophenyl)methyl]-6-({1-[(3-{[(2S)-oxetan-2-yl]methyl}-6-[5-(trifluoromethyl)-4H-1,2,4-triazol-3-yl]-3H-imidazo[4,5-b]pyridin-2-yl)methyl]piperidin-4-yl}oxy)pyridine]
44	Fc1cc(Cl)ccc1Cc1nccc(OC2CCN(Cc3nc4cc(/C=C/c5cccnc5)ccc4n3C[C@@H]3CCO3)CC2)n1 [Compound 118a, 2-{[4-({2-[(4-chloro-2-fluorophenyl)methyl]pyrimidin-4-yl}oxy)piperidin-1-yl]methyl}-1-{[(2S)-oxetan-2-yl]methyl}-5-[(1E)-2-(pyridin-3-yl)ethenyl]-1H-1,3-benzodiazole]
0.79	Cn1cc(-c2ccc3c(c2)nc(CN2CCC(Oc4ccnc(Cc5ccc(Cl)cc5)n4)CC2)n3C[C@@H]2CCO2)nn1 [Compound 130a, 2-{[4-({2-[(4-chlorophenyl)methyl]pyrimidin-4-yl}oxy)piperidin-1-yl]methyl}-5-(1-methyl-1H-1,2,3-triazol-4-yl)-1-{[(2S)-oxetan-2-yl]methyl}-1H-1,3-benzodiazole]

same assay, conditions: HEK293/GLP1R/CRE-LUC cells, cAMP dynamic 2 Kit (Cisbio), 30 min incubation at 37° C.; read-out: EC50

EC50 [nM]	SMILES
1.8	O=c1[nH]c(-c2ccc3c(c2)nc(C[C@H]2CC[C@H](Oc4nc(Cc5ccc(Cl)cc5)ncc4F)CC2)n3C[C@@H]2CCO2)no1 [Compound 172a, 3-(1-{[(2S)-oxetan-2-yl]methyl}-2-{[(1r,4r)-4-({2-[(4-chlorophenyl)methyl]-5-fluoropyrimidin-4-yl}oxy)cyclohexyl]methyl}-1H-1,3-benzodiazol-5-yl)-4,5-dihydro-1,2,4-oxadiazol-5-one]
5.9	O=C(Nc1ccc2c(c1)nc(CN1CCC(Oc3ccnc(Cc4ccc(Cl)cc4F)n3)CC1)n2C[C@@H]1CCO1)c1ccc(C2CC2)nc1 [Compound 117a, N-(2-{[4-({2-[(4-chloro-2-fluorophenyl)methyl]pyrimidin-4-yl}oxy)piperidin-1-yl]methyl}-1-{[(2S)-oxetan-2-yl]methyl}-1H-1,3-benzodiazol-5-yl)-6-cyclopropylpyridine-3-carboxamide]
0.32	N#CC1(Cn2c(CN3CCC(Oc4ccnc(Cc5ccc(Cl)cc5)n4)CC3)nc3cc(-c4noc(=O)[nH]4)ccc32)CC1 [Compound 155, 1-[(2-{[4-({2-[(4-chlorophenyl)methyl]pyrimidin-4-yl}oxy)piperidin-1-yl]methyl}-5-(5-oxo-4,5-dihydro-1,2,4-oxadiazol-3-yl)-1H-1,3-benzodiazol-1-yl)methyl]cyclopropane-1-carbonitrile]
0.58	Fc1cc(Cl)ccc1Cc1cccc(OC2CCN(Cc3nc4cc(-c5nnc(C(F)(F)F)[nH]5)nnc4n3C[C@@H]3CCO3)CC2)n1 [Compound 181a, 2-[(4-chloro-2-fluorophenyl)methyl]-6-({1-[(7-{[(2S)-oxetan-2-yl]methyl}-3-[5-(trifluoromethyl)-4H-1,2,4-triazol-3-yl]-7H-imidazo[4,5-c]pyridazin-6-yl)methyl]piperidin-4-yl}oxy)pyridine]
0.37	Fc1cc(Cc2cccc(OC3CCN(Cc4nc5cc(-c6nnc(C(F)(F)F)[nH]6)ncc5n4C[C@@H]4CCO4)CC3)n2)ccc1Cl [Compound 185a, 2-[(4-chloro-3-fluorophenyl)methyl]-6-({1-[(3-{[(2S)-oxetan-2-yl]methyl}-6-[5-(trifluoromethyl)-4H-1,2,4-triazol-3-yl]-3H-imidazo[4,5-c]pyridin-2-yl)methyl]piperidin-4-yl}oxy)pyridine]
0.54	Fc1cc2c(cc1-c1nnc(C(F)(F)F)[nH]1)nc(CN1CCC(Oc3ccnc(Cc4ccc(Cl)cc4)n3)CC1)n2C[C@@H]1CCO1 [Compound 122a, 2-{[4-({2-[(4-chlorophenyl)methyl]pyrimidin-4-yl}oxy)piperidin-1-yl]methyl}-6-fluoro-1-{[(2S)-oxetan-2-yl]methyl}-5-[5-(trifluoromethyl)-4H-1,2,4-triazol-3-yl]-1H-1,3-benzodiazole]
5.8	Cc1ccncc1C(=O)Nc1ccc2c(c1)nc(CN1CCC(Oc3ccnc(Cc4ccc(Cl)cc4)n3)CC1)n2C[C@@H]1CCO1 [Compound 105a, N-(2-{[4-({2-[(4-chlorophenyl)methyl]pyrimidin-4-yl}oxy)piperidin-1-yl]methyl}-1-{[(2S)-oxetan-2-yl]methyl}-1H-1,3-benzodiazol-5-yl)-4-methylpyridine-3-carboxamide]

More lines, now with the values behind:

SMILES	EC50 [nM]
Fc1cc(Cl)ccc1Cc1cccc(OC2CCN(Cc3nc4cc(-c5nnn[nH]5)ncc4n3C[C@@H]3CCO3)CC2)n1 [Compound 176a, 2-[(4-chloro-2-fluorophenyl)methyl]-6-({1-[(3-{[(2S)-oxetan-2-yl]methyl}-6-(1H-1,2,3,4-tetrazol-5-yl)-3H-imidazo[4,5-c]pyridin-2-yl)methyl]piperidin-4-yl}oxy)pyridine]	0.2
Fc1cc(Cl)ccc1COc1cccc(N[C@@H]2CCN(Cc3nc4cc(-c5nnc(C(F)(F)F)[nH]5)ncc4n3C[C@@H]3CCO3)C2)n1 [Compound 174a, 6-[(4-chloro-2-fluorophenyl)methoxy]-N-[(3R)-1-[(3-{[(2S)-oxetan-2-yl]methyl}-6-[5-(trifluoromethyl)-4H-1,2,4-triazol-3-yl]-3H-imidazo[4,5-c]pyridin-2-yl)methyl]pyrrolidin-3-yl]pyridin-2-amine]	3.4
O=c1[nH]c(-c2ccc3c(c2)nc(CN2CCC(Oc4ccnc(Cc5ccc(Cl)cc5)n4)CC2)n3C[C@@H]2CCO2)no1 [Compound 108a, 3-(2-{[4-({2-[(4-chlorophenyl)methyl]pyrimidin-4-yl}oxy)piperidin-1-yl]methyl}-1-{[(2S)-oxetan-2-yl]methyl}-1H-1,3-benzodiazol-5-yl)-4,5-dihydro-1,2,4-oxadiazol-5-one]	0.38
O=c1[nH]c(-c2cc3nc(CN4CCC(Oc5ccnc(Cc6ccc(Cl)cc6F)n5)CC4)n(C[C@@H]4CCO4)c3cn2)no1 [Compound 167a, 3-(2-{[4-({2-[(4-chloro-2-fluorophenyl)methyl]pyrimidin-4-yl}oxy)piperidin-1-yl]methyl}-3-{[(2S)-oxetan-2-yl]methyl}-3H-imidazo[4,5-c]pyridin-6-yl)-4,5-dihydro-1,2,4-oxadiazol-5-one]	0.23
Fc1cc(Cl)ccc1Cc1cccc(OC2CCN(Cc3nc4cc(-c5nnc(C(F)(F)F)[nH]5)ncc4n3C3CCOCC3)CC2)n1 [Compound 191, 2-[(4-chloro-2-fluorophenyl)methyl]-6-[(1-{[3-(oxan-4-yl)-6-[5-(trifluoromethyl)-4H-1,2,4-triazol-3-yl]-3H-imidazo[4,5-c]pyridin-2-yl]methyl}piperidin-4-yl)oxy]pyridine]	41
Fc1cc(Cl)ccc1Cc1cccc(OC2CCN(Cc3nc4cc(-c5nnn[nH]5)ccc4n3C[C@@H]3CCO3)CC2)n1 [Compound 110a, 2-{[4-({6-[(4-chloro-2-fluorophenyl)methyl]pyridin-2-yl}oxy)piperidin-1-yl]methyl}-1-{[(2S)-oxetan-2-yl]methyl}-5-(1H-1,2,3,4-tetrazol-5-yl)-1H-1,3-benzodiazole]	0.38
